Consider nine compounds from US20110104103A1, “Method of conjugating therapeutic compounds to cell targeting devices via metal complexes” (KREATECH BIOTECHNOLOGY B.V., priority 2005, published 2011).

The subject of data set [1] is activated hepatic stellate cells (HSC). Briefly: Immunohistochemical staining of fibrosis markers in HSC after 24 h incubation. Conditions: conjugates 1 mg/ml (100 μM PTX), non-targeted PTX 1 mM. In kind it is cell-based. The protocol: The pharmacological effects of the conjugates were tested on different cultured cell types, e.g. activated hepatic stellate cells (HSC), kidney tubular cells (HK-2 cells) or human umbilical cord endothelial cells (HUVEC). Typically, cells were incubated for 24 h at 37° C. with the conjugates. Subsequently, the cells were subjected to analyses related to pharmacological activity of the coupled drug (gene expression analysis, immunohistochemcial evaluation of effect markers), or assays related to potential cytotoxicity of the complexes (cell viability assays, apoptosis assays).
FIG. 5. […] Cells were stained for collagen type I or α-smooth muscle actin and counterstained with hematoxillin. […] Magnification 10×. One of the hallmarks of liver fibrosis is the induced expression and production of a-smooth muscle actin (aSMA) and collagen type 1 by activated HSC. These proteins were therefore selected as read-out parameters of the antifibrotic effects of the targeted PTX.

Data set [2] in a line: Drug release studies (stability of drug-carrier linkage). The class given is in vitro ADME. The protocol:
The stability of the drug-carrier linkage was investigated by incubating cell targeting complexes at 37° C. under several conditions, e.g. buffers, buffers spiked with drug releasing substances or biological media.

Data set [3] is described as follows: Pharmacokinetic evaluation of kidney directed complexes in healthy rats. The class given is in vivo, Wistar rats. How it is done:
Organ distribution studies with this type of cell targeting complexes were performed in healthy Wistar rats. All in vivo experiments were approved by the Local Committee for Care and Use of Laboratory Animals.
Rats were injected intravenously with a single dose of the SB202190-cisULS-lysozyme conjugate (16 mg/kg equivalent to 376 μg/kg of SB202190; dissolved in 5% glucose) via the penile vein. Animals were sacrificed at different time points between 1 and 72 h after administration. Blood samples were collected by heart puncture and kidneys were isolated after flushing the organs gently with saline. Serum and organs were snap-frozen into liquid nitrogen immediately. Urine samples were collected using metabolic cages and combined with the urine collected from urinary bladder after sacrificing the animals. Kidneys were weighed, homogenized (1:3 w/v in PBS, Turrax homogenization) and then stored at −80° C. Released drug amounts were estimated by HPLC analysis after extraction as described before. To estimate total drug (bound plus released), samples were treated with KSCN to release SB202190 from the ULS linker as described above and then subjected to HPLC analysis. Anti-LZM immunohistochemical staining was performed on cryostat kidney sections to detect the uptake of the conjugate in tubular cells.
Renal drug levels were assayed in KSCN-treated kidney homogenates and serum samples using HPLC methods optimized for the respective drugs. Y27632 was analyzed on a C18 reversed-phase SunFire™ column C18 using a mobile phase of water-methanol-trifluoroacetic acid (86:14:0.1, v/v/v; pH 2.0) at a flow rate of 1 ml/min. TKI was analyzed on the same column using a mobile phase consisted of water-acetonitrile-trifluoroacetic acid (91:09:0.1, v/v/v; pH 2.0) at a flow rate of 1 ml/min.

The nature of data set [4]: Platinum-related toxicity of SB202190-cisULS-LZM in normal rats. In kind it is in vivo, Male Wistar rats. The text has this:
In addition to drug related effects, we investigated whether administration of cell targeting complexes to healthy rats induced potential platinum related toxicity. Since the kidney is one of the major sites of platinum toxicity of cytostatic compounds, we performed these studies with SB202190-cisULS-LZM which accumulates in the kidney. We investigated morphology and induction of apoptosis (TUNEL staining), as well as basic renal parameters.
In order to detect potential platinum-related toxicity of kidney directed cell targeting complexes, we evaluated SB202190-cisULS-LZM in healthy rats.
To examine the effect on renal function, serum and urine creatinine levels were determined and creatinine clearances were calculated. […] To calculate proteinuria for the SB202190-cisULS-LZM group, the mean of the urinary protein levels at different days was taken. TUNEL stainings were performed on frozen kidney sections to examine the number of apoptotic cells. In addition, we determined the platinum levels in kidneys using […] after digestion of the tissue in concentrated nitric acid for 24 h at room temperature and heating at 70° C. until the formation of clear solution.

For data set [5], the system named is I/R rats. Briefly: Unilateral ischemia/reperfusion injury (I/R) model. The class given is in vivo.
The target of data set [6] is T1, αvβ3-integrin expressed on the surface of HUVEC (Homo sapiens, UniProt P05106+P06756).
T1 construct: αvβ3-integrin expressed on the surface of HUVEC; endogenous in cells; host or cells: HUVEC (confluent monolayers)
T1 sequence (P06756 31-889 limits assumed): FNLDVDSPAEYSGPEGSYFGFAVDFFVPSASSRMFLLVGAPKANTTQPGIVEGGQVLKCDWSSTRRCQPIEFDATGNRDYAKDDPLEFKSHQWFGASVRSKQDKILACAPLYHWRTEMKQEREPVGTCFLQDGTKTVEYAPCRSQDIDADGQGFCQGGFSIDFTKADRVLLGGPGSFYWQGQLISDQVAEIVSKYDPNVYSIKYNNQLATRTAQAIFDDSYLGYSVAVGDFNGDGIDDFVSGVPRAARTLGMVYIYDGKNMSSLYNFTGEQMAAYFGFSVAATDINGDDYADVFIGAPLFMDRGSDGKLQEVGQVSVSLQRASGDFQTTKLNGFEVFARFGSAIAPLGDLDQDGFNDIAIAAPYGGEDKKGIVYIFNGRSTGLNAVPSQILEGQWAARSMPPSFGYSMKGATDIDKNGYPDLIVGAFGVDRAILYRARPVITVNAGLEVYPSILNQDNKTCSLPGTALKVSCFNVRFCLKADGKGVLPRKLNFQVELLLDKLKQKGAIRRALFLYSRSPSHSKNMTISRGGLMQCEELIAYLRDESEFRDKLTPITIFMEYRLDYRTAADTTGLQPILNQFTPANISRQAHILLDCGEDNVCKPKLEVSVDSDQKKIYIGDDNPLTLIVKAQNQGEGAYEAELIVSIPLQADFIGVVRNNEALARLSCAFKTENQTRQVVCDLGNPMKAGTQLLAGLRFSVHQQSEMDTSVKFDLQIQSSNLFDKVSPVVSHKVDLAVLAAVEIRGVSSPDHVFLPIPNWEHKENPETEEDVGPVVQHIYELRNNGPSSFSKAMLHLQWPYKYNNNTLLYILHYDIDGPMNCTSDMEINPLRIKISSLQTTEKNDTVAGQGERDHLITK
T1 sequence (P06756 891-1048 partner limits assumed): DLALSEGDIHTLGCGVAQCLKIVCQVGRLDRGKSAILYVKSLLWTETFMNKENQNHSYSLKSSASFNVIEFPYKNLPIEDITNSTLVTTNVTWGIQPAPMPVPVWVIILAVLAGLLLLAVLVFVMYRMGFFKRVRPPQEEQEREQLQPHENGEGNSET
T1 sequence (P05106 27-788): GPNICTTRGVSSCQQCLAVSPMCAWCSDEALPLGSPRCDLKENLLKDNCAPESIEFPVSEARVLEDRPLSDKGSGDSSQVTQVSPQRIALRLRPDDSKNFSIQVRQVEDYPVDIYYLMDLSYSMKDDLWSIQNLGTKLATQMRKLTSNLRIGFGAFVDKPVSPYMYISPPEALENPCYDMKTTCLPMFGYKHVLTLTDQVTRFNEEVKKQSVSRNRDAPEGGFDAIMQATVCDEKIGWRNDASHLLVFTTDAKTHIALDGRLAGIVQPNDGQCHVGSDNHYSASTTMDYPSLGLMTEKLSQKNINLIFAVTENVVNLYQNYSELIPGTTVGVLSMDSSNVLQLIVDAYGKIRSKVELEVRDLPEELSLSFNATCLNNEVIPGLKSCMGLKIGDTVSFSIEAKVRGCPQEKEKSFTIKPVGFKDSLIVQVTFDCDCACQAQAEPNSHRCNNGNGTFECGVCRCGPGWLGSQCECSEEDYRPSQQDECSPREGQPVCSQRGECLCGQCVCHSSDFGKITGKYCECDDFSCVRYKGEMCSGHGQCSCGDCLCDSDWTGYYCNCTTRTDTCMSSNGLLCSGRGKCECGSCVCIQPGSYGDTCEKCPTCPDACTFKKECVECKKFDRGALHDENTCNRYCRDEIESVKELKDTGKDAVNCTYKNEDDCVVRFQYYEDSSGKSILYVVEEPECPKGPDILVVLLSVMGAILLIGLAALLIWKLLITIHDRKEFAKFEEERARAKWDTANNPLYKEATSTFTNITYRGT
Briefly: Competitive displacement of 125I-labeled echistatin. As to conditions: displacement of 125I-echistatin, read-out: IC50 (binding affinity). The protocol:
In a different experimental setup that allowed the calculation for binding constants, we explored the affinity of RGD-equipped PTK787-cisULS-albumins. ^125I-labeled echistatin was used as a radioligand for αvβ3-integrin expressed on the surface of HUVEC. Competitive binding studies were performed by coincubating using confluent monolayers of HUVEC with the radiolabeled ligand and non-radiolabeled complexes.
Background: Displacement assays read how much labelled ligand stays bound in the presence of the test substance.

Data set [7] concerns endothelial cells (HUVEC). Briefly: Binding of 89Zr-radiolabeled RGD-equipped complex to endothelial cells. On the set-up: species or system human. As to conditions: 4° C. for 4 h.
Procedure: The interaction of cell targeting complexes with target cells was investigated in cultured target cells. Typically, in vitro targeting studies were performed by incubating target cells with the complexes, at either 4° C. or 37° C. Binding and/or internalization of the complexes by target cells was detected by either immunohistochemical staining for the complex (e.g. anti-HSA or anti-LZM staining) or by quantification of a radioactive reporter group that had been introduced in the complex (e.g. ^125I).
Binding of RGD-equipped complexes to endothelial cells was studied using ^89Zr-radiolabeled compounds.
Data set [8] is described as follows: Organ distribution and liver losartan levels in BDL rats. The class given is in vivo. How it is done:
The extraction was performed by adding 3 ml of methyl butyl ether to 200 μl of liver homogenate and vortexing for 5 min. Layers were separated by centrifugation at 900×g for 5 min and the aqueous layer was frozen in liquid nitrogen. The upper organic layer was transferred to another borosilicate glass tube and evaporated completely at 60° C. The extraction procedure was repeated twice and the total residue was reconstituted in 200 μl of mobile phase. Chromatography was carried out using a C18 (C18, 5 μm, 4.6×150 mm) reversed-phase column (Surefire, Waters Inc., Milford, Mass., USA) at 40° C. with an isocratic mobile phase consisting of acetonitrile-water-trifluoroacetic acid (30:70:0.1, v/v/v; pH 2.0).

Data set [9] relates to hepatic fibrosis in BDL rats. Nature of the data set: Antifibrotic effect of losartan-cisULS-M6PHSA in BDL model of liver fibrosis. The class given is in vivo. Conditions: four daily doses.
Procedure: Ten minutes after the last dose, animals were sacrificed and blood and liver samples were obtained. […] The extraction was performed by adding 3 ml of methyl butyl ether to 200 μl of liver homogenate and vortexing for 5 min. Layers were separated by centrifugation at 900×g for 5 min and the aqueous layer was frozen in liquid nitrogen. The upper organic layer was transferred to another borosilicate glass tube and evaporated completely at 60° C. The extraction procedure was repeated twice and the total residue was reconstituted in 200 μl of mobile phase. Chromatography was carried out using a C18 (C18, 5 μm, 4.6×150 mm) reversed-phase column (Surefire, Waters Inc., Milford, Mass., USA) at 40° C. with an isocratic mobile phase consisting of acetonitrile-water-trifluoroacetic acid (30:70:0.1, v/v/v; pH 2.0).
Animal experiments were performed as described above.
The subject of data set [10] is IL8 gene expression in HUVEC treated with TNF. Nature of the data set: IL8 gene expression in TNF-treated HUVEC. The class given is cell-based, human. As to conditions: 10 μM.
The conditions of data set [11]: 5 mg/kg of free SB202190, 4 h after administration; cited from earlier work.
The subject of data set [12] is UUO rats. Nature of the data set: Unilateral ureteral obstruction (UUO) model of renal fibrosis. In kind it is in vivo. Conditions: day 3. How it is done: Animals were divided into 4 groups: normal rats, fibrotic control animals (vehicle, 5% glucose), TKI-LZM (25 mg/kg equiv. to 630 μg/kg TKI) and free, unconjugated TKI (630 μg/kg). TKI was dissolved in 20% hydroxylpropyl-β-cyclodextrin in water with 5% DMSO, whereas TKI-LZM was dissolved in 5% glucose. To allow unhindered uptake of the products in the kidneys, rats were injected intravenously with either of these compounds 2 h before the uretheral obstruction. Left kidneys and ureter were exposed via a flank-incision under isoflurane anesthesia after which the ureter was ligated at three sites with 4-0 silk near the hilum. After 3 days, animals were sacrificed under anesthesia and kidneys were gently flushed and harvested. Kidney cortex pieces were snap-frozen to isolate RNA as described above. Kidney pieces were fixed in 4% formalin solution in PBS to make paraffin-embedded sections for anti-α-SMA and ED-1 immunohistochemical staining and morphometric analysis.

Setting [13] is: normal rats, mean ± SEM, SB-ULS-LZM at 24, 32, 48 and 72 h, cisplatin 3 mg/kg i.v. at 24 h.
Setting [14] is: four i.v. doses, 20 mg/kg conjugate or 555 μg/kg Y27632.

Entries after “also recorded” stand apart in the source; their conditions may differ.

Turning to `CC(=O)CCCCn1c(=O)c2c(ncn2C)n(C)c1=O` [PTX, 3,7-dimethyl-1-(5-oxohexyl)purine-2,6-dione], in data set [1], the aSMA staining intensity result was “reduced the intensity of both collagen type I production and aSMA”; the “collagen type I staining” value was “reduced the intensity of both collagen type I production and aSMA”.

Consider SB202190-cisULS-LZM, for which the “Stability / release of SB202190” value in data set [2] (37° C. in PBS pH 7.4 or rat serum) is reported as “high stability in buffer or serum”. Moreover, the “Release of SB202190” value in data set [2] (37° C., kidney homogenate in PBS 1/3 (w/v)) is “continuously released free drug”. In addition, the “free drug in serum / serum stability” value in data set [3] (16 mg/kg i.v. single dose, 1-72 h) is “free drug was absent at all time points; also recorded: remained stable in the serum”. For the same compound, the “accumulation in the kidneys” value in data set [3] (16 mg/kg i.v., within 1 h) is listed as 20 % of the injected dose. Further, in data set [3] (kidney sections), the “accumulation in proximal tubular cells (anti-LZM staining)” value is on record as “accumulation of the conjugate in proximal tubular cells was confirmed”. Besides, in [3] (single dose 16 mg/kg i.v.), the “renal levels of free and bound drug over time” value is “continuous levels of both free drug and bound drug during a three-day period”. In addition, the “tubular cell apoptosis by TUNEL staining” value in data set [4] (as compared to untreated rats) is “no increase in the number of apoptotic cells”. Besides, the “urinary protein levels” value in data set [4] (in comparison to untreated rats) was “an increase in urinary protein levels”; in data set [4] (setting [13]) it was 29.6 ± 2.0 mg/day. The compound also returned a TUNEL positive cells in [4] (normal rats, kidney sections, mean ± SEM, cisplatin at 24 h) of 42.7 ± 18 numbers per field. In addition, the Renal platinum concentration in data set [4] (normal rats, ICP-AAS, mean ± SEM) is listed as 37.0 ± 1.2 nmol/g. The “Change in body weight” value in data set [4] (normal rats, mean ± SEM) is given as “+0.3 ± 1.2 %”. For the same compound, the Creatinine clearance in data set [4] (setting [13]) turned out to be 0.8 ± 0.03 mL/min.

Consider losartan-cisULS-LZM, for which, in data set [5] (four doses 20 mg/kg/day), the “number of infiltrated macrophages (ED-1)” value was “reduced the number of infiltrated macrophages”.

In the case of “RGDPEG-avidin: avidin with RGD-peptide via vinylsulfone-PEG-NHS, average 5.4 RGD groups per avidin”, the IC50 in [6] stood at 134 nM.

Turning to “Y27632-cisULS-LZM: Y27632-cisULS reacted with met-LZM, 1-2 Y27632 per LZM”, in data set [5] (setting [14]), the “infiltration of macrophages, ED-1 staining morphometric score” value is recorded as “significantly reduced the morphometric score of the stained areas” and the “α-SMA staining morphometric score” value is given as “significantly reduced the morphometric score of the stained areas”.

Consider “c(RGDf(ε-S-acetylthioacetyl)K) [RGD-peptide]”, for which the “displacement of binding of RGDPEG-SB202190-cisULS-HSA” value in [7] is “could be displaced”.

Take `CCCCc1nc(Cl)c(CO)n1Cc1ccc(-c2ccccc2-c2nn[nH]n2)cc1` [losartan]: the “liver losartan as % of the cumulative dose” value in data set [8] (BDL rats, 10 min after last dose) was 4%. In [8] (rat, liver, oral, 5 mg/kg/day), this compound displayed a concentration at 10 min of 12100 ng/g. In data set [9], the “hepatic fibrosis, Sirius Red staining” value is given as “Severe bridging” and the “αSMA-positive cells in liver” value is “marked accumulation of αSMA-positive cells”.

On to `Oc1ccc(-c2nc(-c3ccncc3)c(-c3ccc(F)cc3)[nH]2)cc1` [SB202190, 4-(-Fluorophenyl)-2-(4-hydroxy-phenyl)-5-(4-pyridyl)-1H-imidazole], for which, in data set [10], the “IL8 gene expression level after inhibition” value stood at 40%. The “fraction distributed to the kidney” value in data set [11] is listed as 0.2%.

Consider `c1ccc(-c2n[nH]cc2-c2ccnc3ccccc23)nc1` [TKI, 3-(Pyridin-2-yl)-4-(4-quinonyl)-1H-pyrazole], for which the “MCP-1 gene expression in kidney” value in data set [12] (single dose 25 mg/kg conjugate or 630 μg/kg TKI) is “did not lower the expressions of MCP-1”. Also, in data set [12] (single dose), the “expression of the fibrosis marker α-SMA” value was “significantly decreased” and the “infiltrated macrophages (ED-1 immunostaining)” value was “a reduction of ED-1 immunostaining”.

The IC50 is the concentration that gives 50% inhibition.
